Like-named read-outs stand apart in the source and are kept apart here.

One assay has as its system JNK. Description: JNK Activation Assay in Panc-1 (western blot). More on the design: key: Y = yes; N = No. Type of assay: cell-based, Human. As to conditions: at 10 μM. The essentials:
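Cells were serum-starved overnight in 0.5% FBS, then given compound (10 μM single dose or serial dilutions, 0.3% DMSO) for 3 h at 37 °C. TGF-b1 at 10 ng/ml followed, 1 h for Panc-1 and 20 min for C2C12. Phospho-JNK (Thr183/Tyr185) was read by western blot of lysates.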
(In general: In western blotting, separated proteins are transferred to a membrane and probed.)

A further assay deals with KRas wild type (Homo sapiens (Human), UniProt P01116). As to the kind of experiment: Ras GTP Binding Domain Inhibition Assay, KRas wild type. The essentials: (§1)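 His-tagged GTPase immobilized on nickel-coated plates (10-30 μg/mL, overnight, 4° C), then exposed to compound (20 μM or serial dilution for IC50, 1% DMSO) for 3 h at room temperature, with or without His-tagged Sos (residues 556-1049) in the final hour. Bound Cy3-GTP or Cy5-GTP (100 nM, 45 min) was read by fluorescence after washing.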

The target of a further assay is KRas G12C mutant (Homo sapiens (Human), UniProt P01116, G12C). Description: Ras GTP Binding Domain Inhibition Assay, KRas G12C mutant. The essentials: as §1
Another assay concerns the target Rac-1 (Homo sapiens (Human), UniProt P63000). As to the kind of experiment: Ras GTP Binding Domain Inhibition Assay, Rac-1. The essentials:
(§2)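 Steps: coat His-tagged protein (10-30 μg/mL) on nickel wells overnight at 4° C; add test compound, 20 μM final or serial dilution, 1% DMSO, 3 h RT; optional Sos final hour; add 100 nM Cy3-GTP or Cy5-GTP, 45 min; wash and read fluorescence.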

In another assay the target is Rho-A (Homo sapiens (Human), UniProt P61586). As to the kind of experiment: Ras GTP Binding Domain Inhibition Assay, Rho-A. Put shortly: as §2
Setting [1] is: + SOS, read-out: KRas wild type + SOS: % inh.
Setting [2] is: without SOS, read-out: KRas wild type: % inh.
The mark [3] stands for this setting: + SOS, read-out: KRas G12C mutant + SOS: % inh.
[4] abbreviates: without SOS, read-out: KRas G12C mutant: % inh.
Where [5] appears, read: + SOS, read-out: Rac-1 + SOS: % inh.
[6] abbreviates: without SOS, read-out: Rac-1: % inh.
Where [7] appears, read: + SOS, read-out: Rho-A + SOS: % inh.
Where [8] appears, read: without SOS, read-out: Rho-A: % inh.

KRas G12C mutant, sequence (P01116 other isoform, or with tags, fused parts or gaps G12C): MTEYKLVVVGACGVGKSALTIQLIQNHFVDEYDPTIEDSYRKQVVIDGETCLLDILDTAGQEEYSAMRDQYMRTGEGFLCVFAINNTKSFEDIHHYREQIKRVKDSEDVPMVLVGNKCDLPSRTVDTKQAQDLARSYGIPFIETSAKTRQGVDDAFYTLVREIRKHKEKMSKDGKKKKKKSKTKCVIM
KRas wild type, sequence (P01116 other isoform, or with tags, fused parts or gaps): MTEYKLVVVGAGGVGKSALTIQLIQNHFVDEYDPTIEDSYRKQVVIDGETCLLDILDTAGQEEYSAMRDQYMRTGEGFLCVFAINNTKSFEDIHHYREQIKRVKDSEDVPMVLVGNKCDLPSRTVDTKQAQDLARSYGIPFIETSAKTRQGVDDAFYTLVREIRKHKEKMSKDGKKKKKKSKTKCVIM
Rho-A, sequence (P61586 whole entry, species assumed, the tested form may be a part): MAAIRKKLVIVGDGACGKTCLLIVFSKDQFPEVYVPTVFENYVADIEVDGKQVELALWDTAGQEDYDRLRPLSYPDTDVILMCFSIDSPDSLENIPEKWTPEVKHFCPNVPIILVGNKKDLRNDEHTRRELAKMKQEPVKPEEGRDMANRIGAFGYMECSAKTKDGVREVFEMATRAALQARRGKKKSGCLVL

Consider `COCCNc1nc(-c2nccn2C)nc2sc(-c3cccc(OC)c3Cl)c(-c3ccc(OC)cc3)c12` [Compound 7, 6-(2-Chloro-3-methoxyphenyl)-N-(2-methoxyethyl)-5-(4-methoxyphenyl)-2-(1-methyl-1H-imidazol-2-yl)thieno[2,3-d]pyrimidin-4-amine], for which the “Activation of JNK in PANC-1” value in the assay on JNK was “Y”. In addition, the inhibition at 20 µM at KRas wild type (setting [1]) lay within 76 to 100%; on KRas wild type (setting [2]), 46 to 75%; on KRas G12C mutant (setting [3]), 76 to 100%; on KRas G12C mutant (setting [4]) it was 26 to 45%; on Rac-1 (setting [5]), 46 to 75%; at Rac-1 (setting [6]) it was 46 to 75%. Besides, the figures for the inhibition at 20 µM on Rho-A (setting [7]) and on Rho-A (setting [8]) were 46 to 75% and 26 to 45%, respectively.
For `COCCNc1nc(-c2cn(C)cn2)nc2sc(-c3cccc(OC)c3Cl)c(-c3ccc(OC)cc3)c12` [Compound 8, 6-(2-Chloro-3-methoxyphenyl)-N-(2-methoxyethyl)-5-(4-methoxyphenyl)-2-(1-methyl-1H-imidazol-4-yl)thieno[2,3-d]pyrimidin-4-amine], the “Activation of JNK in PANC-1” value in the assay with JNK was “Y”. The inhibition at 20 µM at KRas wild type (setting [1]) was in the range of 76 to 100%; on KRas wild type (setting [2]), 46 to 75%; at KRas G12C mutant (setting [3]), 76 to 100%; on KRas G12C mutant (setting [4]) it was 26 to 45%; on Rac-1 (setting [5]), 46 to 75%; at Rac-1 (setting [6]), 46 to 75%. Also, the inhibition at 20 µM at Rho-A (setting [7]) and on Rho-A (setting [8]) was 46 to 75% throughout.
Take `COCCNc1nc(-c2nccn2C)nc2sc(-c3cccc(OC)c3Cl)c(-c3ccccc3)c12` [Compound 9, 6-(2-Chloro-3-methoxyphenyl)-N-(2-methoxyethyl)-2-(1-methyl-1H-imidazol-2-yl)-5-phenylthieno[2,3-d]pyrimidin-4-amine]: the “Activation of JNK in PANC-1” value with JNK is on record as “Y”. The inhibition at 20 µM at KRas wild type (setting [1]) lay within 76 to 100%; on KRas wild type (setting [2]), 46 to 75%; at KRas G12C mutant (setting [3]) it was 76 to 100%; at KRas G12C mutant (setting [4]), 26 to 45%; on Rac-1 (setting [5]), 46 to 75%; on Rac-1 (setting [6]), 46 to 75%. Also, the inhibition at 20 µM at Rho-A (setting [7]) and at Rho-A (setting [8]) was 26 to 45% each time.
Take `COCCn1ccnc1-c1nc(N[C@H]2C[C@@H](OC)C2)c2c(-c3ccccc3)c(-c3ccn(C)n3)sc2n1` [Compound 13, N-((1s,3s)-3-methoxycyclobutyl)-2-(1-(2-methoxyethyl)-1H-imidazol-2-yl)-6-(1-methyl-1H-pyrazol-3-yl)-5-phenylthieno[2,3-d]pyrimidin-4-amine]: in the assay with JNK, the “Activation of JNK in PANC-1” value is reported as “Y”. In addition, the inhibition at 20 µM on KRas wild type (setting [1]), at KRas wild type (setting [2]), on KRas G12C mutant (setting [3]), at KRas G12C mutant (setting [4]), at Rac-1 (setting [5]) and at Rac-1 (setting [6]) was 76 to 100% throughout. In addition, the inhibition at 20 µM on Rho-A (setting [7]) and on Rho-A (setting [8]) was 76 to 100% throughout.
In the case of `CO[C@H]1C[C@H](CNc2nc(-c3nccn3C)nc3sc(-c4ccn(C(C)C)n4)c(C)c23)C1` [Compound 16, 6-(1-Isopropyl-1H-pyrazol-3-yl)-N-(((1r,3r)-3-methoxycyclobutyl)methyl)-5-methyl-2-(1-methyl-1H-imidazol-2-yl)thieno[2,3-d]pyrimidin-4-amine], the “Activation of JNK in PANC-1” value in the assay with JNK is given as “Y”. Also, the inhibition at 20 µM on KRas wild type (setting [1]) was in the range of 46 to 75%; at KRas wild type (setting [2]), 76 to 100%; on KRas G12C mutant (setting [3]), 46 to 75%; on KRas G12C mutant (setting [4]), 46 to 75%; on Rac-1 (setting [6]), 26 to 45%; at Rho-A (setting [8]), 46 to 75%.
Turning to `COc1cccc(Nc2nc(-c3nccn3C)nc3sc(-c4ccn(C(C)C)n4)c(C)c23)c1` [Compound 17, 6-(1-Isopropyl-1H-pyrazol-3-yl)-N-(3-methoxyphenyl)-5-methyl-2-(1-methyl-1H-imidazol-2-yl)thieno[2,3-d]pyrimidin-4-amine], the “Activation of JNK in PANC-1” value in the assay with JNK is given as “Y”. Moreover, the inhibition at 20 µM lay within 46 to 75% on KRas wild type (setting [1]); 26 to 45% at KRas wild type (setting [2]); 76 to 100% at KRas G12C mutant (setting [3]); 46 to 75% on KRas G12C mutant (setting [4]); 26 to 45% at Rac-1 (setting [6]); 46 to 75% at Rho-A (setting [8]).
For the compound `COc1cccc(Nc2nc(-c3nccn3C)nc3sc(-c4ccn(C(C)C)n4)c(C)c23)n1` [Compound 18, 6-(1-Isopropyl-1H-pyrazol-3-yl)-N-(6-methoxypyridin-2-yl)-5-methyl-2-(1-methyl-1H-imidazol-2-yl)thieno[2,3-d]pyrimidin-4-amine], the “Activation of JNK in PANC-1” value with JNK is “Y”. Also, the inhibition at 20 µM on KRas wild type (setting [1]) is 46 to 75%; at KRas wild type (setting [2]) it was 46 to 75%; on KRas G12C mutant (setting [3]), 46 to 75%; at KRas G12C mutant (setting [4]), 46 to 75%; at Rac-1 (setting [6]), 46 to 75%; on Rho-A (setting [8]), 76 to 100%.
In the case of `COc1cc(Nc2nc(-c3nccn3C)nc3sc(-c4ccn(C(C)C)n4)c(C)c23)ncn1` [Compound 19, 6-(1-Isopropyl-1H-pyrazol-3-yl)-N-(6-methoxypyrimidin-4-yl)-5-methyl-2-(1-methyl-1H-imidazol-2-yl)thieno[2,3-d]pyrimidin-4-amine], in the assay with JNK, the “Activation of JNK in PANC-1” value is reported as “Y”. Further, the inhibition at 20 µM on KRas wild type (setting [1]) was in the range of 76 to 100%; at KRas wild type (setting [2]), 76 to 100%; at KRas G12C mutant (setting [3]), 76 to 100%; at KRas G12C mutant (setting [4]) it was 46 to 75%; at Rac-1 (setting [6]) it was 46 to 75%; at Rho-A (setting [8]), 76 to 100%.
Turning to `COCCOCCNc1nc(-c2nccn2C)nc2sc(-c3ccn(C(C)C)n3)c(C)c12` [Compound 21, 6-(1-Isopropyl-1H-pyrazol-3-yl)-N-(2-(2-methoxyethoxy)ethyl)-5-methyl-2-(1-methyl-1H-imidazol-2-yl)thieno[2,3-d]pyrimidin-4-amine], in the assay on JNK, the “Activation of JNK in PANC-1” value is “Y”. Also, the inhibition at 20 µM on KRas wild type (setting [1]) was 76 to 100%; at KRas wild type (setting [2]) it was 76 to 100%; at KRas G12C mutant (setting [3]), 76 to 100%; on KRas G12C mutant (setting [4]), 46 to 75%; on Rac-1 (setting [6]), 76 to 100%; on Rho-A (setting [8]) it was 76 to 100%.
As for `Cc1c(-c2ccn(C(C)C)n2)sc2nc(-c3nccn3C)nc(NCCN3CCOCC3)c12` [Compound 22, 6-(1-Isopropyl-1H-pyrazol-3-yl)-5-methyl-2-(1-methyl-1H-imidazol-2-yl)-N-(2-morpholinoethyl)thieno[2,3-d]pyrimidin-4-amine], the “Activation of JNK in PANC-1” value in the assay on JNK is “Y”. The inhibition at 20 µM on KRas wild type (setting [1]), on KRas wild type (setting [2]), at KRas G12C mutant (setting [3]), on KRas G12C mutant (setting [4]), at Rac-1 (setting [6]) and at Rho-A (setting [8]) was 76 to 100% in each case.
With `Cc1c(-c2ccn(C(C)C)n2)sc2nc(-c3nccn3C)nc(NCCN3CCS(=O)(=O)CC3)c12` [Compound 23, 4-(2-((6-(1-Isopropyl-1H-pyrazol-3-yl)-5-methyl-2-(1-methyl-1H-imidazol-2-yl)thieno[2,3-d]pyrimidin-4-yl)amino)ethyl)thiomorpholine 1,1-dioxide], in the assay with JNK, the “Activation of JNK in PANC-1” value is listed as “N”. The inhibition at 20 µM was in the range of 76 to 100% on KRas wild type (setting [1]); 76 to 100% at KRas wild type (setting [2]); 76 to 100% on KRas G12C mutant (setting [3]); 46 to 75% on KRas G12C mutant (setting [4]); 46 to 75% on Rac-1 (setting [6]); 46 to 75% on Rho-A (setting [8]).
With `CO[C@H]1CNC[C@@H](Nc2nc(-c3nccn3C)nc3sc(-c4ccn(C(C)C)n4)cc23)C1` [Compound 28, 6-(1-Isopropyl-1H-pyrazol-3-yl)-N-((3S,5R)-5-methoxypiperidin-3-yl)-2-(1-methyl-1H-imidazol-2-yl)thieno[2,3-d]pyrimidin-4-amine], in the assay on JNK, the “Activation of JNK in PANC-1” value is “Y”. The inhibition at 20 µM was 76 to 100% on KRas wild type (setting [1]); 76 to 100% on KRas wild type (setting [2]); 76 to 100% at KRas G12C mutant (setting [3]); 76 to 100% at KRas G12C mutant (setting [4]); 46 to 75% on Rac-1 (setting [6]); 46 to 75% on Rho-A (setting [8]).
Regarding `COCCn1c(-c2nccn2C)nc2sc(-c3ccn(C(C)C)n3)c(C)c2c1=O` [Compound 29, 6-(1-Isopropyl-1H-pyrazol-3-yl)-3-(2-methoxyethyl)-5-methyl-2-(1-methyl-1H-imidazol-2-yl)thieno[2,3-d]pyrimidin-4(3H)-one], in the assay on JNK, the “Activation of JNK in PANC-1” value was “Y”. Also, the inhibition at 20 µM is 76 to 100% on KRas wild type (setting [1]); 76 to 100% at KRas wild type (setting [2]); 76 to 100% at KRas G12C mutant (setting [3]); 46 to 75% on KRas G12C mutant (setting [4]); 0% at Rac-1 (setting [6]); 76 to 100% at Rho-A (setting [8]).

Source of the values: US20240124483A1, “Methods for the Treatment of Fibrotic Disease” (SHY Therapeutics, LLC, priority 2021, published 2024).
